Assay [1] relates to Cabbage Looper (Trichoplusia ni, TRIPNI). As to the kind of experiment: Bioassay on Cabbage Looper (CL), 128-well diet tray assay. The assay is classed as in vivo. As to conditions: for mortality at 50 µg/cm2: 168 h, 50 μg/cm^2 on artificial diet, second instar larvae, five to seven days, 25° C., read-out: CL % Control (or Mortality) rating. How it is done: (§1) Example A: Bioassays on Beet Armyworm (Spodoptera Exigua, LAPHEG) (“BAW”), Corn Earworm (Helicoverpa zea, HELIZE) (“CEW”), and Cabbage Looper (Trichoplusia ni, TRIPNI) (“CL”)
(§2) Certain molecules disclosed in this document were tested against BAW, CEW, and CL using procedures described in the following examples. In the reporting of the results, the “BAW, CEW, & CL Rating Table” was used (See Table Section).
Bioassays on CL were conducted using a 128-well diet tray assay. One to five second instar CL larvae were placed in each well (3 mL) of the diet tray that had been previously filled with 1 mL of artificial diet to which 50 μg/cm^2 of the test molecule (dissolved in 50 μL of 90:10 acetone-water mixture) had been applied (to each of eight wells) and then allowed to dry. Trays were covered with a clear self-adhesive cover and held at 25° C., 14:10 light-dark for five to seven days. Percent mortality was recorded for the larvae in each well; activity in the eight wells was then averaged. The results are indicated in the table entitled “Table ABC: Biological Results” (See Table Section).
(§3) Bioassays on BAW and CL were conducted according to the procedures outlined in Example A: Bioassays on Beet Armyworm (“BAW”) and Cabbage Looper (“CL”) using the indicated concentrations.

Assay [2] relates to Beet Armyworm (Spodoptera exigua, LAPHEG). Description: Bioassay on Beet Armyworm (BAW), 128-well diet tray assay. As to conditions: for mortality at 50 µg/cm2: 168 h, 50 μg/cm^2 on artificial diet, second instar larvae, five to seven days, 25° C., read-out: BAW % Control (or Mortality) rating. The format is in vivo. As for the experimental part:
as §1, §2
Bioassays on BAW were conducted using a 128-well diet tray assay. One to five second instar BAW larvae were placed in each well (3 mL) of the diet tray that had been previously filled with 1 mL of artificial diet to which 50 μg/cm^2 of the test molecule (dissolved in 50 μL of 90:10 acetone-water mixture) had been applied (to each of eight wells) and then allowed to dry. Trays were covered with a clear self-adhesive cover and held at 25° C., 14:10 light-dark for five to seven days. Percent mortality was recorded for the larvae in each well; activity in the eight wells was then averaged. The results are indicated in the table entitled “Table ABC: Biological Results” (See Table Section).
as §3

Where [3] appears, read: 0.05 μg/cm^2, Table CD2 comparative data, read-out: Percent control (or mortality) CL.
[4] abbreviates: 0.5 μg/cm^2, Table CD2 comparative data, read-out: Percent control (or mortality) CL.
[5] abbreviates: 5 μg/cm^2, Table CD2 comparative data, read-out: Percent control (or mortality) CL.
The mark [6] stands for this setting: 0.05 μg/cm^2, Table CD2 comparative data, read-out: Percent control (or mortality) BAW.
[7] abbreviates: 0.5 μg/cm^2, Table CD2 comparative data, read-out: Percent control (or mortality) BAW.
Setting [8] is: 5 μg/cm^2, Table CD2 comparative data, read-out: Percent control (or mortality) BAW.
Setting [9] is: 0.05 μg/cm^2, read-out: CL Percent control (or mortality).
The mark [10] stands for this setting: 0.5 μg/cm^2, read-out: CL Percent control (or mortality).
Where [11] appears, read: 5 μg/cm^2, read-out: CL Percent control (or mortality).
The mark [12] stands for this setting: 0.05 μg/cm^2, read-out: BAW Percent control (or mortality).
The mark [13] stands for this setting: 0.5 μg/cm^2, read-out: BAW Percent control (or mortality).
Setting [14] is: 5 μg/cm^2, read-out: BAW Percent control (or mortality).

Where two headings read alike, the source gives them in different places.

This note sets out measurements from patent US10681908B2, “Molecules having pesticidal utility, and intermediates, compositions, and processes, related thereto” (Dow AgroSciences LLC, priority 2016, dated 2020).

The term mortality denotes the percentage killed. As for `Cc1cc(/C(F)=C/C(c2cc(Cl)c(Cl)c(Cl)c2)C(F)(F)F)ccc1C(=O)N[C@H](C)CSCC(F)(F)F` (stereo partly drawn) [F4, 2-Methyl-4-((Z)-1,4,4,4-tetrafluoro-3-(3,4,5-trichlorophenyl)but-1-en-1-yl)-N—((R)-1-((2,2,2-trifluoroethyl)thio)propan-2-yl)benzamide], the results for the mortality at 0.05 µg/cm2 in assay [1] (setting [3]) and in assay [2] (setting [6]) were 7% and 67%, respectively. Moreover, the mortality at 0.5 µg/cm2 in assay [1] (setting [4]) came to 60%; in assay [2] (setting [7]) it was 100%. In addition, the mortality at 5 µg/cm2 in assay [1] (setting [5]) and in assay [2] (setting [8]) was 100% throughout. Also, the mortality at 50 µg/cm2 in assay [1] and in assay [2] was 50 to 100% throughout.
`Cc1cc(/C(F)=C/C(c2cc(Cl)c(Cl)c(Cl)c2)C(F)(F)F)ccc1C(=O)N[C@H](C)C[S+]([O-])CC(F)(F)F` (stereo partly drawn) [F5, 2-Methyl-4-((Z)-1,4,4,4-tetrafluoro-3-(3,4,5-trichlorophenyl)but-1-en-1-yl)-N-((2R)-1-((2,2,2-trifluoroethyl)sulfinyl)propan-2-yl)benzamide]: the mortality at 50 µg/cm2 in assay [1] and in assay [2] was 50 to 100% throughout.
For `Cc1cc(/C(F)=C/C(c2cc(Cl)c(Cl)c(Cl)c2)C(F)(F)F)ccc1C(=O)N[C@H](C)CS(=O)(=O)CC(F)(F)F` (stereo partly drawn) [F6, 2-Methyl-4-((Z)-1,4,4,4-tetrafluoro-3-(3,4,5-trichlorophenyl)but-1-en-1-yl)-N—((R)-1-((2,2,2-trifluoroethyl)sulfonyl)propan-2-yl)benzamide], the mortality at 50 µg/cm2 in assay [1] and in assay [2] was 50 to 100% in each case.
Regarding `C[C@H](CSCC(F)(F)F)NC(=O)c1ccc(/C(F)=C/C(c2cc(Cl)c(Cl)c(Cl)c2)C(F)(F)F)cc1Br` (stereo partly drawn) [F7, 2-Bromo-4-((Z)-1,4,4,4-tetrafluoro-3-(3,4,5-trichlorophenyl)but-1-en-1-yl)-N—((R)-1-((2,2,2-trifluoroethyl)thio)propan-2-yl)benzamide], the mortality at 0.05 µg/cm2 in assay [1] (setting [3]) and in assay [2] (setting [6]) was 0% in each case. Moreover, the mortality at 0.5 µg/cm2 in assay [1] (setting [4]) is 56%; in assay [2] (setting [7]), 100%. Moreover, the mortality at 5 µg/cm2 in assay [1] (setting [5]) and in assay [2] (setting [8]) was 100% in each case. The mortality at 50 µg/cm2 in assay [1] and in assay [2] was 50 to 100% in each case.
On to `C[C@H](CS(=O)(=O)CC(F)(F)F)NC(=O)c1ccc(/C(F)=C/C(c2cc(Cl)c(Cl)c(Cl)c2)C(F)(F)F)cc1Br` (stereo partly drawn) [F8, 2-Bromo-4-((Z)-1,4,4,4-tetrafluoro-3-(3,4,5-trichlorophenyl)but-1-en-1-yl)-N—((R)-1-((2,2,2-trifluoroethyl)sulfonyl)propan-2-yl)benzamide], for which the mortality at 50 µg/cm2 in assay [1] and in assay [2] was 50 to 100% throughout.
For `C[C@H](C[S+]([O-])CC(F)(F)F)NC(=O)c1ccc(/C(F)=C/C(c2cc(Cl)c(Cl)c(Cl)c2)C(F)(F)F)cc1Br` (stereo partly drawn) [F9, 2-Bromo-4-((Z)-1,4,4,4-tetrafluoro-3-(3,4,5-trichlorophenyl)but-1-en-1-yl)-N-((2R)-1-((2,2,2-trifluoroethyl)sulfinyl)propan-2-yl)benzamide], the mortality at 50 µg/cm2 in assay [1] and in assay [2] was 50 to 100% in each case.
`C[C@H](CSCC(F)(F)F)NC(=O)c1ccc(/C(F)=C/C(c2cc(Cl)c(Cl)c(Cl)c2)C(F)(F)F)cc1Cl` (stereo partly drawn) [F10, 2-Chloro-4-((Z)-1,4,4,4-tetrafluoro-3-(3,4,5-trichlorophenyl)but-1-en-1-yl)-N—((R)-1-((2,2,2-trifluoroethyl)thio)propan-2-yl)benzamide]: the mortality at 0.05 µg/cm2 in assay [1] (setting [3]) stood at 6%; in assay [2] (setting [6]), 0%. In addition, the mortality at 0.5 µg/cm2 in assay [1] (setting [4]) and in assay [2] (setting [7]) was 100% throughout. Moreover, the mortality at 5 µg/cm2 in assay [1] (setting [5]) and in assay [2] (setting [8]) was 100% in each case. The mortality at 50 µg/cm2 in assay [1] and in assay [2] was 50 to 100% each time.
As for `C[C@H](CS(=O)(=O)CC(F)(F)F)NC(=O)c1ccc(/C(F)=C/C(c2cc(Cl)c(Cl)c(Cl)c2)C(F)(F)F)cc1Cl` (stereo partly drawn) [F11, 2-Chloro-4-((Z)-1,4,4,4-tetrafluoro-3-(3,4,5-trichlorophenyl)but-1-en-1-yl)-N—((R)-1-((2,2,2-trifluoroethyl)sulfonyl)propan-2-yl)benzamide], the mortality at 50 µg/cm2 in assay [1] and in assay [2] was 50 to 100% in each case.
For `C[C@H](C[S+]([O-])CC(F)(F)F)NC(=O)c1ccc(/C(F)=C/C(c2cc(Cl)c(Cl)c(Cl)c2)C(F)(F)F)cc1Cl` (stereo partly drawn) [F12, 2-Chloro-4-((Z)-1,4,4,4-tetrafluoro-3-(3,4,5-trichlorophenyl)but-1-en-1-yl)-N-((2R)-1-((2,2,2-trifluoroethyl)sulfinyl)propan-2-yl)benzamide], the mortality at 50 µg/cm2 in assay [1] and in assay [2] was 50 to 100% in each case.
As for `Cc1cc(/C(F)=C/C(c2cc(Cl)c(Cl)c(Cl)c2)C(C)(F)F)ccc1C(=O)N[C@H](C)CSCC(F)(F)F` (stereo partly drawn) [F13, 2-Methyl-4-((Z)-1,4,4-trifluoro-3-(3,4,5-trichlorophenyl)pent-1-en-1-yl)-N—((R)-1-((2,2,2-trifluoroethyl)thio)propan-2-yl)benzamide], the mortality at 50 µg/cm2 in assay [1] and in assay [2] was 50 to 100% each time.
`Cc1cc(/C(F)=C/C(c2cc(Cl)c(Cl)c(Cl)c2)C(C)(F)F)ccc1C(=O)N[C@H](C)CS(=O)(=O)CC(F)(F)F` (stereo partly drawn) [F14, 2-Methyl-4-((Z)-1,4,4-trifluoro-3-(3,4,5-trichlorophenyl)pent-1-en-1-yl)-N—((R)-1-((2,2,2-trifluoroethyl)sulfonyl)propan-2-yl)benzamide]: the figures for the mortality at 0.05 µg/cm2 in assay [1] (setting [9]) and in assay [2] (setting [12]) were 100% and 69%, respectively. Besides, the mortality at 0.5 µg/cm2 in assay [1] (setting [10]) and in assay [2] (setting [13]) was 100% in each case. Further, the mortality at 5 µg/cm2 in assay [1] (setting [11]) and in assay [2] (setting [14]) was 100% throughout. Moreover, the mortality at 50 µg/cm2 in assay [1] and in assay [2] was 50 to 100% in each case.
With `C[C@H](CSCC(F)(F)F)NC(=O)c1ccc(/C(F)=C/C(c2cc(Cl)c(Cl)c(Cl)c2)C(C)(F)F)cc1C(F)(F)F` (stereo partly drawn) [F15, 4-((Z)-1,4,4-Trifluoro-3-(3,4,5-trichlorophenyl)pent-1-en-1-yl)-N—((R)-1-((2,2,2-trifluoroethyl)thio)propan-2-yl)-2-(trifluoromethyl)benzamide], the mortality at 50 µg/cm2 in assay [1] and in assay [2] was 50 to 100% in each case.
Consider `C[C@H](CS(=O)(=O)CC(F)(F)F)NC(=O)c1ccc(/C(F)=C/C(c2cc(Cl)c(Cl)c(Cl)c2)C(C)(F)F)cc1C(F)(F)F` (stereo partly drawn) [F16, 4-((Z)-1,4,4-Trifluoro-3-(3,4,5-trichlorophenyl)pent-1-en-1-yl)-N—((R)-1-((2,2,2-trifluoroethyl)sulfonyl)propan-2-yl)-2-(trifluoromethyl)benzamide], for which the mortality at 0.05 µg/cm2 in assay [1] (setting [9]) and in assay [2] (setting [12]) was 100% in each case. Moreover, the mortality at 0.5 µg/cm2 in assay [1] (setting [10]) and in assay [2] (setting [13]) was 100% each time. The mortality at 5 µg/cm2 in assay [1] (setting [11]) and in assay [2] (setting [14]) was 100% throughout. In addition, the mortality at 50 µg/cm2 in assay [1] and in assay [2] was 50 to 100% throughout.
For the compound `C[C@H](CSCC(F)(F)F)NC(=O)c1ccc(/C(F)=C/C(c2cc(Cl)c(Br)c(Cl)c2)C(F)(F)F)cc1C(F)(F)F` (stereo partly drawn) [F24, 4-((Z)-3-(4-Bromo-3,5-dichlorophenyl)-1,4,4,4-tetrafluorobut-1-en-1-yl)-N—((R)-1-((2,2,2-trifluoroethyl)thio)propan-2-yl)-2-(trifluoromethyl)benzamide], the mortality at 50 µg/cm2 in assay [1] and in assay [2] was 50 to 100% throughout.
In the case of `CCC(F)(F)C(/C=C(\F)c1ccc(C(=O)N[C@H](C)CS(=O)(=O)CC(F)(F)F)c(C(F)(F)F)c1)c1cc(Cl)c(Cl)c(Cl)c1` (stereo partly drawn) [F38, 4-((Z)-1,4,4-Trifluoro-3-(3,4,5-trichlorophenyl)hex-1-en-1-yl)-N—((R)-1-((2,2,2-trifluoroethyl)sulfonyl)propan-2-yl)-2-(trifluoromethyl)benzamide], the mortality at 50 µg/cm2 in assay [1] and in assay [2] was 50 to 100% throughout.
